Here are results for 19 compounds from publication PMC4901301 (Scientific Reports, 2016).

Holding throughout (assay type): cell-based, Mycobacterium tuberculosis
Experiment [1] deals with Mtb MT 182. Description: Resazurin (Alamar Blue) drug susceptibility testing, MT 182. (Alamar Blue is a resazurin reagent that responds to reducing activity.)
Experiment [2] has as its system Mtb TC 12561. Description: Resazurin (Alamar Blue) drug susceptibility testing, TC 12561.
Experiment [3] deals with Mtb TH 12768. The experiment in a line: Resazurin (Alamar Blue) drug susceptibility testing, TH 12768.
The test system of experiment [4] is Mtb H37Rv thyX Tet-OFF conditional knockdown mutant.

Structures are written as SMILES. Values after ≈ are worked out from the molar mass of the structure shown. Like-named read-outs stand apart in the source and are kept apart here. A value given as a limit tells only on which side of the number the result lay.

In general, MIC refers to the least concentration at which growth counts as inhibited. On to `O=C1C(O)=C(Cc2ccc(-c3ccc(Cl)cc3)cc2)C(=O)c2ccccc21` [Compound 007B], for which the MIC in experiment [1] (read-out: MIC) was 83.4 µM (≈ 31.3 µg/mL); in experiment [2] (read-out: MIC) it was 83.4 µM (≈ 31.3 µg/mL); in experiment [3] (read-out: MIC), 41.7 µM (≈ 15.6 µg/mL).
Regarding `O=C1C(O)=C(Cc2ccc(OC(F)(F)F)cc2)C(=O)c2ccccc21` [Compound 007C], the MIC in experiment [1] (read-out: MIC), in experiment [2] (read-out: MIC) and in experiment [3] (read-out: MIC) was 44.9 µM (≈ 15.6 µg/mL) each time.
On to `CC(C)Oc1ccc(CC2=C(O)C(=O)c3ccccc3C2=O)cc1` [Compound 007D], for which the MIC in experiment [1] (read-out: MIC), in experiment [2] (read-out: MIC) and in experiment [3] (read-out: MIC) was 96.9 µM (≈ 31.2 µg/mL) throughout.
For the compound `O=C1C(O)=C(Cc2ccc(C(F)(F)F)cc2)C(=O)c2ccccc21` [Compound 007F], the MIC in experiment [1] (read-out: MIC) is reported as 94.1 µM (≈ 31.3 µg/mL); in experiment [2] (read-out: MIC) it was 47.0 µM (≈ 15.6 µg/mL); in experiment [3] (read-out: MIC), 94.1 µM (≈ 31.3 µg/mL).
For the compound `O=C1C(O)=C(Cc2ccc(Oc3ccccc3)cc2)C(=O)c2ccccc21` [Compound 007G], the MIC was 87.8 µM (≈ 31.3 µg/mL) in experiment [1] (read-out: MIC), 87.8 µM (≈ 31.3 µg/mL) in experiment [2] (read-out: MIC) and 175.5 µM (≈ 62.5 µg/mL) in experiment [3] (read-out: MIC).
Regarding `O=C1C(O)=C(Cc2ccc(Cl)cc2)C(=O)c2ccccc21` [Compound 010A], the figures for the minimum inhibitory concentration (MIC) in experiment [1] (read-out: MIC), in experiment [2] (read-out: MIC) and in experiment [3] (read-out: MIC) were 104.6 µM (≈ 31.2 µg/mL), 52.3 µM (≈ 15.6 µg/mL) and 104.6 µM (≈ 31.2 µg/mL), respectively.
On to `O=C1C(O)=C(Cc2cc(F)cc(F)c2)C(=O)c2ccccc21` [Compound 010B], for which the minimum inhibitory concentration (MIC) is on record as 104.1 µM (≈ 31.3 µg/mL) in experiment [1] (read-out: MIC), 104.1 µM (≈ 31.3 µg/mL) in experiment [2] (read-out: MIC) and 52.1 µM (≈ 15.6 µg/mL) in experiment [3] (read-out: MIC).
Turning to `O=C1C(O)=C(Cc2ccco2)C(=O)c2ccccc21` [Compound 010C], the MIC in experiment [1] (read-out: MIC), in experiment [2] (read-out: MIC) and in experiment [3] (read-out: MIC) was 176.5 µM (≈ 44.9 µg/mL) each time.
For the compound `O=C1C(O)=C(Cc2cccs2)C(=O)c2ccccc21` [Compound 010D], the figures for the MIC in experiment [1] (read-out: MIC), in experiment [2] (read-out: MIC) and in experiment [3] (read-out: MIC) were 462.4 µM (≈ 125 µg/mL), 57.8 µM (≈ 15.6 µg/mL) and 231.2 µM (≈ 62.5 µg/mL), respectively.
Consider `O=C1C(O)=C(Cc2ccc(F)c(C(F)(F)F)c2)C(=O)c2ccccc21` [Compound 010E], for which the MIC in experiment [1] (read-out: MIC), in experiment [2] (read-out: MIC) and in experiment [3] (read-out: MIC) was 22.3 µM (≈ 7.81 µg/mL) each time.
As to `O=C1C(O)=C(Cc2ccc(F)c(Cl)c2)C(=O)c2ccccc21` [Compound 010F], the minimum inhibitory concentration (MIC) in experiment [1] (read-out: MIC) was found to be 98.7 µM (≈ 31.3 µg/mL); in experiment [2] (read-out: MIC) it was 49.3 µM (≈ 15.6 µg/mL); in experiment [3] (read-out: MIC), 197.3 µM (≈ 62.5 µg/mL).
The matching figures for `COc1cc(CC2=C(O)C(=O)c3ccccc3C2=O)ccc1O` [Compound 010H]: 100.7 µM (≈ 31.2 µg/mL), 201.4 µM (≈ 62.5 µg/mL) and 201.4 µM (≈ 62.5 µg/mL).
As for `CCCCC1=C(O)C(=O)c2ccccc2C1=O` [Compound 010I], the MIC in experiment [1] (read-out: MIC) turned out to be 135.7 µM (≈ 31.2 µg/mL); in experiment [2] (read-out: MIC), 271.4 µM (≈ 62.5 µg/mL); in experiment [3] (read-out: MIC), 135.7 µM (≈ 31.2 µg/mL).
`COc1ccc(CC2=C(O)C(=O)c3ccccc3C2=O)cc1OC` [Compound 010K]: the MIC amounted to 385.4 µM (≈ 125 µg/mL) in experiment [1] (read-out: MIC), 192.7 µM (≈ 62.5 µg/mL) in experiment [2] (read-out: MIC) and 192.7 µM (≈ 62.5 µg/mL) in experiment [3] (read-out: MIC).
With `CCOC(=O)C1=C(c2ccc(C)cc2)C(=O)c2ccccc2C1=O` [Compound B6, ethyl 3-(4-methylphenyl)-1,4-dioxonaphtalene-2-carboxylate], in experiment [4], the “MIC90 shift (increase in potency) upon ThyX depletion” value is on record as “no shift”.
On the same count and under the same terms, the result for `CS(=O)(=O)N1CCN(C2=C(Cl)C(=O)c3ccccc3C2=O)CC1` [Compound E1, 2-chloro-3-(4-methanesulfonylpiperazin-1-yl)-1,4-dihydronaphthalene-1,4-dione] reads not below 4 fold.
For the compound `NNC(=O)c1ccncc1` [INH, isoniazid, reference compound], the MIC was less than 0.91 µM in experiment [1] (Mycobacterium tuberculosis, MT182, read-out: MIC); 14.6 µM (≈ 2 µg/mL) in experiment [2] (Mycobacterium tuberculosis, TC12561, read-out: MIC); 3.64 µM (≈ 0.499 µg/mL) in experiment [3] (Mycobacterium tuberculosis, TH12768, read-out: MIC).
As for `COC1=C(OC)C(=O)C(CCCCCCCCCCO)=C(C)C1=O` [Idebenone, idebenone, reference compound], the Growth inhibition in experiment [4] is recorded as ~ 90%.
Take `CO[C@H]1/C=C/O[C@@]2(C)Oc3c(C)c(O)c4c(O)c(c(/C=N/N5CCN(C)CC5)c(O)c4c3C2=O)NC(=O)/C(C)=C\C=C\[C@H](C)[C@H](O)[C@@H](C)[C@@H](O)[C@@H](C)[C@H](OC(C)=O)[C@@H]1C` [RMP, rifampicin, reference compound]: the MIC is 1.21 µM (≈ 0.996 µg/mL) in experiment [1] (Mycobacterium tuberculosis, MT182); 4.86 µM (≈ 4 µg/mL) in experiment [2] (Mycobacterium tuberculosis, TC12561); less than 0.3 µM in experiment [3] (Mycobacterium tuberculosis, TH12768).
